Laboratory results reported in the supplement of paper PMC10733146.

Assays:
Assay in all cases: viability relative to DMSO control (fraction); higher = less drug effect (more viable cells)
Settings in all cases: 48 h
[1] = tested on: primary AML patient cells (S081)
Method in brief: (§1)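 Cells were incubated for 48 h at 37 °C and 5% CO2 in RPMI-1640 with penicillin/streptomycin, L-glutamine and human serum, at 4 × 10^4 cells per well in 384-well plates with compounds pre-plated at five concentrations, one well each. These were primary mononuclear tumour cells, fresh or cryopreserved, Ficoll-isolated from blood or bone marrow or obtained from processed lymph node. Viability values are CellTiter-Glo luminescence relative to the median of 16 inner DMSO wells.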

[2] = tested on: primary FL patient cells (S087)
Method in brief: as §1

[3] = tested on: primary AML patient cells (S012)
Method in brief: as §1

[4] = tested on: primary MCL patient cells (S053)
Method in brief: as §1

[5] = tested on: primary AML patient cells (S019)
Method in brief: as §1

[6] = tested on: primary BL patient cells (S005)
Method in brief: as §1

[7] = tested on: primary AML patient cells (S002)
Method in brief: as §1

[8] = tested on: primary AML patient cells (S011)
Method in brief: as §1

[9] = tested on: primary AML patient cells (S037)
Method in brief: as §1

[10] = tested on: primary MCL patient cells (S068)
Method in brief: as §1

[11] = tested on: primary AML patient cells (S025)
Method in brief: as §1

[12] = tested on: primary AML patient cells (S091)
Method in brief: as §1

[13] = tested on: primary AML patient cells (S009)
Method in brief: as §1

[14] = tested on: primary AML patient cells (S085)
Method in brief: as §1

[15] = tested on: primary MCL patient cells (S041)
Method in brief: as §1

[16] = tested on: primary AML patient cells (S021)
Method in brief: as §1

[17] = tested on: primary FL patient cells (S022)
Method in brief: as §1

[18] = tested on: primary B-PLL patient cells (S016)
Method in brief: as §1

[19] = tested on: primary AML patient cells (S017)
Method in brief: as §1

[20] = tested on: primary T-PLL patient cells (S008)
Method in brief: as §1

CC(C)(C)C[C@@H]1N[C@@H](C(=O)N[C@H]2CC[C@H](O)CC2)[C@H](c2cccc(Cl)c2F)[C@]12C(=O)Nc1cc(Cl)ccc12 [MI-773] was tested, and the viability ([1]; 0.008 µM) was 1, the viability ([1]; 0.04 µM) was 1.05 and the viability ([1]; 0.2 µM) was 1.11. For the same molecule, the viability ([1]; 1 µM) was 1.02, the viability ([1]; 5 µM) was 1.12 and the viability ([2]; 0.008 µM) was 1. For the same molecule, the viability ([2]; 0.04 µM) was 0.99, the viability ([2]; 0.2 µM) was 0.937 and the viability ([2]; 1 µM) was 0.849. For the same molecule, the viability ([2]; 5 µM) was 0.694, the viability ([3]; 0.008 µM) was 0.96 and the viability ([3]; 0.04 µM) was 0.971. It also gave a viability ([3]; 0.2 µM) of 0.937, a viability ([3]; 1 µM) of 0.976 and a viability ([3]; 5 µM) of 1.02. For the same molecule, the viability ([4]; 0.008 µM) was 1.11, the viability ([4]; 0.04 µM) was 0.915 and the viability ([4]; 0.2 µM) was 0.755. For the same molecule, the viability ([4]; 1 µM) was 0.424, the viability ([4]; 5 µM) was 0.347 and the viability ([5]; 0.008 µM) was 1.34. It also gave a viability ([5]; 0.04 µM) of 1.23, a viability ([5]; 0.2 µM) of 1.19 and a viability ([5]; 1 µM) of 0.689. For the same molecule, the viability ([5]; 5 µM) was 0.343, the viability ([6]; 0.008 µM) was 0.915 and the viability ([6]; 0.04 µM) was 0.744. It also gave a viability ([6]; 0.2 µM) of 0.789, a viability ([6]; 1 µM) of 0.897 and a viability ([6]; 5 µM) of 0.903. For the same molecule, the viability ([7]; 0.008 µM) was 0.994, the viability ([7]; 0.04 µM) was 0.926 and the viability ([7]; 0.2 µM) was 0.688. The viability ([7]; 1 µM) was 0.413, the viability ([7]; 5 µM) was 0.253 and the viability ([8]; 0.008 µM) was 0.937. The viability ([8]; 0.04 µM) was 0.938, the viability ([8]; 0.2 µM) was 0.7 and the viability ([8]; 1 µM) was 0.465. For the same molecule, the viability ([8]; 5 µM) was 0.218, the viability ([9]; 0.008 µM) was 1.04 and the viability ([9]; 0.04 µM) was 1.01. For the same molecule, the viability ([9]; 0.2 µM) was 1.01, the viability ([9]; 1 µM) was 0.742 and the viability ([9]; 5 µM) was 0.453. The viability ([10]; 0.008 µM) was 1.08, the viability ([10]; 0.04 µM) was 0.944 and the viability ([10]; 0.2 µM) was 0.986. The viability ([10]; 1 µM) was 0.854, the viability ([10]; 5 µM) was 0.68 and the viability ([11]; 0.008 µM) was 1.12. It also gave a viability ([11]; 0.04 µM) of 0.901, a viability ([11]; 0.2 µM) of 0.818 and a viability ([11]; 1 µM) of 0.421. It also gave a viability ([11]; 5 µM) of 0.202, a viability ([12]; 0.008 µM) of 0.979 and a viability ([12]; 0.04 µM) of 0.781. It also gave a viability ([12]; 0.2 µM) of 0.587, a viability ([12]; 1 µM) of 0.428 and a viability ([12]; 5 µM) of 0.321. It also gave a viability ([13]; 0.008 µM) of 0.894, a viability ([13]; 0.04 µM) of 0.755 and a viability ([13]; 0.2 µM) of 0.698. For the same molecule, the viability ([13]; 1 µM) was 0.56, the viability ([13]; 5 µM) was 0.524 and the viability ([14]; 0.008 µM) was 1.08. It also gave a viability ([14]; 0.04 µM) of 0.972, a viability ([14]; 0.2 µM) of 0.849 and a viability ([14]; 1 µM) of 0.481. It also gave a viability ([14]; 5 µM) of 0.204, a viability ([15]; 0.008 µM) of 1.02 and a viability ([15]; 0.04 µM) of 0.976. It also gave a viability ([15]; 0.2 µM) of 0.92, a viability ([15]; 1 µM) of 0.752 and a viability ([15]; 5 µM) of 0.434. It also gave a viability ([16]; 0.008 µM) of 1, a viability ([16]; 0.04 µM) of 0.966 and a viability ([16]; 0.2 µM) of 0.648. It also gave a viability ([16]; 1 µM) of 0.46, a viability ([16]; 5 µM) of 0.215 and a viability ([17]; 0.008 µM) of 1.02. For the same molecule, the viability ([17]; 0.04 µM) was 0.934, the viability ([17]; 0.2 µM) was 0.957 and the viability ([17]; 1 µM) was 0.947. For the same molecule, the viability ([17]; 5 µM) was 0.722, the viability ([18]; 0.008 µM) was 0.954 and the viability ([18]; 0.04 µM) was 0.858. It also gave a viability ([18]; 0.2 µM) of 0.771, a viability ([18]; 1 µM) of 0.568 and a viability ([18]; 5 µM) of 0.0958. It also gave a viability ([19]; 0.008 µM) of 1.06, a viability ([19]; 0.04 µM) of 0.896 and a viability ([19]; 0.2 µM) of 0.806. It also gave a viability ([19]; 1 µM) of 0.877, a viability ([19]; 5 µM) of 0.834 and a viability ([20]; 0.008 µM) of 0.99. For the same molecule, the viability ([20]; 0.04 µM) was 0.946, the viability ([20]; 0.2 µM) was 0.989 and the viability ([20]; 1 µM) was 0.677. For the same molecule, the viability ([20]; 5 µM) was 0.258.
